Source: patent publication US8183262B2, “Pyridine derivatives as mGluR2 antagonists” (Hoffmann-La Roche Inc., priority 2007, dated 2012)

Compound `NS(=O)(=O)c1ccc(-c2cccc(-c3nc(-c4ccc(C(F)(F)F)cc4)cc(C(F)F)n3)c2)s1` [Example 459, 5-{3-[4-Difluoromethyl-6-(4-trifluoromethyl-phenyl)-pyrimidin-2-yl]-phenyl}-thiophene-2-sulfonic acid amide] has a melting point of 240.5 °C. Compound `NS(=O)(=O)c1ccc(-c2cn(-c3nc(-c4ccc(Cl)c(Cl)c4)cc(C(F)(F)F)n3)cn2)cc1` [Example 211, 4-{1-[4-(3,4-Dichloro-phenyl)-6-trifluoromethyl-pyrimidin-2-yl]-1H-imidazol-4-yl}-benzenesulfonamide] has a melting point of 334 °C. In the case of `NS(=O)(=O)c1ccc(-c2cc(-c3nc(-c4ccc(C(F)(F)F)cc4)cc(C(F)F)n3)ccn2)s1` [Example 458, 5-{4-[4-Difluoromethyl-6-(4-trifluoromethyl-phenyl)-pyrimidin-2-yl]-pyridin-2-yl}-thiophene-2-sulfonic acid amide], the melting point is reported as 242 °C. `Cc1cc(-c2ccc(C(F)(F)F)cc2)cc(-c2nccs2)n1` [Example 251, 2-Methyl-6-thiazol-2-yl-4-(4-trifluoromethyl-phenyl)-pyridine] gave a melting point of 103 °C. `Cc1cc(-c2ccc(C(F)(F)F)cc2)nc(-c2nc(-c3cccc(S(N)(=O)=O)c3)no2)n1` [Example 126, 3-{5-[4-Methyl-6-(4-trifluoromethyl-phenyl)-pyrimidin-2-yl]-[1,2,4]oxadiazol-3-yl}-benzenesulfonamide] gave a melting point of 240.5 °C. Work on `Cc1cc(-c2cc(C(F)(F)F)nc(-c3nc(-c4ccc(S(N)(=O)=O)cc4)no3)n2)ccc1C(F)(F)F` [Example 128, 4-{5-[4-(3-Methyl-4-trifluoromethyl-phenyl)-6-trifluoromethyl-pyrimidin-2-yl]-[1,2,4]oxadiazol-3-yl}-benzenesulfonamide] yielded a melting point of 261 °C. In the case of `Cc1cc(-c2ccc(C(F)(F)F)cc2)cc(-c2cccc(-c3cccc(S(=O)(=O)N4CC(O)C4)c3)n2)n1` [Example 428, 1-{3-[6′-Methyl-4′-(4-trifluoromethyl-phenyl)-[2,2′]bipyridinyl-6-yl]-benzenesulfonyl}-azetidin-3-ol], the melting point is reported as 205 °C. With `Cc1cc(-c2cc(C(F)(F)F)nc(-c3ccnc(-c4cccc(S(N)(=O)=O)c4)c3)n2)ccc1Cl` [Example 415, 3-{4-[4-(4-Chloro-3-methyl-phenyl)-6-trifluoromethyl-pyrimidin-2-yl]-pyridin-2-yl}-benzenesulfonamide] the melting point was 234 °C. In the case of `Cc1cc(-c2ccc(Cl)cc2)nc(-c2nc(-c3ccc(S(N)(=O)=O)cc3)no2)n1` [Example 136, 4-{5-[4-(4-Chloro-phenyl)-6-methyl-pyrimidin-2-yl]-[1,2,4]oxadiazol-3-yl}-benzenesulfonamide], the melting point is reported as 297 °C. Compound `Cc1cc(-c2ccc(C(F)(F)F)cc2)cc(-c2ccnc(-c3ccc(N)nc3)n2)n1` [Example 239, 5-{4-[6-Methyl-4-(4-trifluoromethyl-phenyl)-pyridin-2-yl]-pyrimidin-2-yl}-pyridin-2-ylamine] has a melting point of 191 °C. `Cc1cc(-c2ccc(C(F)(F)F)cc2)cc(-c2cccc(-c3cccc(S(=O)(=O)N(C)C4CC4)c3)n2)n1` [Example 425, N-Cyclopropyl-N-methyl-3-[6′-methyl-4′-(4-trifluoromethyl-phenyl)-[2,2′]bipyridinyl-6-yl]-benzenesulfonamide] gave a melting point of 157 °C. `FC(F)(F)c1cc(-c2ccc(Cl)cc2)nc(-c2ccnc(-c3cccnc3)c2)n1` [Example 84, 4-[4-(4-Chloro-phenyl)-6-trifluoromethyl-pyrimidin-2-yl]-[2,3]bipyridinyl] showed a melting point of 226 °C. With `Cc1cc(-c2ccc(Cl)c(Cl)c2)cc(-c2cccc(-c3cnc(N)nc3)c2)n1` [Example 250, 5-{3-[4-(3,4-Dichloro-phenyl)-6-methyl-pyridin-2-yl]-phenyl}-pyrimidin-2-ylamine] the melting point was 188 °C. In the case of `NS(=O)(=O)c1ccc(-c2cc(-c3nc(-c4ccc(Cl)cc4)cc(C(F)(F)F)n3)ccn2)s1` [Example 170, 5-{4-[4-(4-Chloro-phenyl)-6-trifluoromethyl-pyrimidin-2-yl]-pyridin-2-yl}-thiophene-2-sulfonic acid amide], the melting point is reported as 290 °C. For `Nc1ccc(-c2cn(-c3nc(-c4ccc(C(F)(F)F)cc4)cc(C(F)(F)F)n3)cn2)cc1` [Example 111, 4-{1-[4-Trifluoromethyl-6-(4-trifluoromethyl-phenyl)-pyrimidin-2-yl]-1H-imidazol-4-yl}-phenylamine], the melting point was 270 °C. In the case of `Cc1cc(-c2ccc(C(F)(F)F)c(C)c2)nc(-n2cnc(-c3ccc(N)nc3)c2)n1` [Example 122, 5-{1-[4-Methyl-6-(3-methyl-4-trifluoromethyl-phenyl)-pyrimidin-2-yl]-1H-imidazol-4-yl}-pyridin-2-ylamine], the melting point is reported as 247.5 °C. Work on `Nc1ccc(-c2cn(-c3nc(-c4ccc(Cl)c(Cl)c4)cc(C(F)(F)F)n3)cn2)cn1` [Example 102, 5-{1-[4-(3,4-Dichloro-phenyl)-6-trifluoromethyl-pyrimidin-2-yl]-1H-imidazol-4-yl}-pyridin-2-ylamine] yielded a melting point of 282.5 °C. Work on `Cc1cc(-c2ccc(Cl)c(Cl)c2)nc(-n2cnc(-c3cccc(S(N)(=O)=O)c3)c2)n1` [Example 198, 3-{1-[4-(3,4-Dichloro-phenyl)-6-methyl-pyrimidin-2-yl]-1H-imidazol-4-yl}-benzenesulfonamide] yielded a melting point of 210 °C. With `Cc1cc(-c2ccc(C(F)(F)F)cc2)nc(-n2cc(-c3ccc(N)nc3)nc2C)n1` [Example 150, 5-{2-Methyl-1-[4-methyl-6-(4-trifluoromethyl-phenyl)-pyrimidin-2-yl]-1H-imidazol-4-yl}-pyridin-2-ylamine] the melting point was 227.5 °C. `NS(=O)(=O)c1ccc(-c2nc(-c3nc(-c4ccc(Cl)cc4)cc(C(F)(F)F)n3)no2)s1` [Example 24, 5-{3-[4-(4-Chloro-phenyl)-6-trifluoromethyl-pyrimidin-2-yl]-[1,2,4]oxadiazol-5-yl}-thiophene-2-sulfonic acid amide] showed a melting point of 236.5 °C. In the case of `NS(=O)(=O)c1ccc(-c2cn(-c3nc(-c4ccc(F)c(F)c4)cc(C(F)(F)F)n3)cn2)s1` [Example 385, 5-{1-[4-(3,4-Difluoro-phenyl)-6-trifluoromethyl-pyrimidin-2-yl]-1H-imidazol-4-yl}-thiophene-2-sulfonic acid amide], the melting point is reported as 228 °C. `Nc1ccc(-c2nc(-c3nc(-c4ccc(Cl)cc4)cc(C(F)(F)F)n3)no2)cn1` [Example 22, 5-{3-[4-(4-Chloro-phenyl)-6-trifluoromethyl-pyrimidin-2-yl]-[1,2,4]oxadiazol-5-yl}-pyridin-2-ylamine] showed a melting point of 191 °C. With `FC(F)(F)c1ccc(-c2cc(C(F)(F)F)nc(-c3cccnc3)n2)cc1` [Example 37, 2-Pyridin-3-yl-4-trifluoromethyl-6-(4-trifluoromethyl-phenyl)-pyrimidine] the melting point was 134 °C. `Cc1cc(-c2ccc(Cl)cc2)nc(-c2cccc(-c3ccc(N)nc3)c2)n1` [Example 109, 5-{3-[4-(4-Chloro-phenyl)-6-methyl-pyrimidin-2-yl]-phenyl}-pyridin-2-ylamine] showed a melting point of 168.5 °C. For `Cc1cc(-c2cc(C(F)(F)F)nc(-n3cnc(-c4ccc(N)nc4)c3)n2)ccc1C(F)(F)F` [Example 120, 5-{1-[4-(3-Methyl-4-trifluoromethyl-phenyl)-6-trifluoromethyl-pyrimidin-2-yl]-1H-imidazol-4-yl}-pyridin-2-ylamine], the melting point was 290 °C. `FC(F)(F)c1cc(-c2ccc(Cl)cc2)nc(-n2cnc(-c3cccnc3)c2)n1` [Example 7, 4-(4-Chloro-phenyl)-2-(4-pyridin-3-yl-imidazol-1-yl)-6-trifluoromethyl-pyrimidine] showed a melting point of 228 °C. Compound `Cc1cc(-c2ccc(C(F)(F)F)cc2)cc(-c2cccc(-c3cccc(S(=O)(=O)NCc4ccccc4)c3)n2)n1` [Example 431, N-Benzyl-3-[6′-methyl-4′-(4-trifluoromethyl-phenyl)-[2,2′]bipyridinyl-6-yl]-benzenesulfonamide] has a melting point of 168 °C. In the case of `Cc1cc(-c2ccc(Cl)c(Cl)c2)cc(-n2cnc(-c3ccc(N)nc3)c2)n1` [Example 246, 5-{1-[4-(3,4-Dichloro-phenyl)-6-methyl-pyridin-2-yl]-1H-imidazol-4-yl}-pyridin-2-ylamine], the melting point is reported as 245 °C. In the case of `NS(=O)(=O)c1cccc(-c2noc(-c3nc(-c4ccc(C(F)(F)F)cc4)cc(C(F)(F)F)n3)n2)c1` [Example 16, 3-{5-[4-Trifluoromethyl-6-(4-trifluoromethyl-phenyl)-pyrimidin-2-yl]-[1,2,4]oxadiazol-3-yl}-benzenesulfonamide], the melting point is reported as 204 °C. In the case of `NS(=O)(=O)c1cccc(-c2cccc(-c3nc(-c4ccc(C(F)(F)F)c(OCC(F)(F)F)c4)cc(C(F)(F)F)n3)c2)c1` [Example 447, 3′-{4-[3-(2,2,2-Trifluoro-ethoxy)-4-trifluoromethyl-phenyl]-6-trifluoromethyl-pyrimidin-2-yl}-biphenyl-3-sulfonic acid amide], the melting point is reported as 188 °C. `CC(C)(C)NS(=O)(=O)c1cccc(-c2cc(-c3nc(-c4ccc(C(F)(F)F)cc4)cc(C(F)(F)F)n3)ccn2)c1` [Example 156, N-tert-Butyl-3-{4-[4-trifluoromethyl-6-(4-trifluoromethyl-phenyl)-pyrimidin-2-yl]-pyridin-2-yl}-benzenesulfonamide] gave a melting point of 211 °C. `Cc1cc(-c2ccc(C(F)(F)F)cc2)nc(-n2cnc(-c3ccc(S(N)(=O)=O)s3)c2)n1` [Example 191, 5-{1-[4-Methyl-6-(4-trifluoromethyl-phenyl)-pyrimidin-2-yl]-1H-imidazol-4-yl}-thiophene-2-sulfonic acid amide] gave a melting point of 277 °C. For `Nc1ccc(-c2cccc(-c3nc(-c4ccc(Cl)cc4)cc(C(F)(F)F)n3)c2)cn1` [Example 27, 5-{3-[4-(4-Chloro-phenyl)-6-trifluoromethyl-pyrimidin-2-yl]-phenyl}-pyridin-2-ylamine], the melting point was 171 °C. For `NS(=O)(=O)c1ccc(-c2cn(-c3nc(-c4ccc(C(F)(F)F)cc4)cc(C(F)(F)F)n3)cn2)cc1` [Example 159, 4-{1-[4-Trifluoromethyl-6-(4-trifluoromethyl-phenyl)-pyrimidin-2-yl]-1H-imidazol-4-yl}-benzenesulfonamide], the melting point was 292 °C.
